Measured values reported in PubChem BioAssay (NCI).
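Exposure lasted 48 hours, with cells grown in 96-well plates and compounds tested at five concentrations. GI50 marks 50% less growth. TGI denotes the concentration required for complete inhibition of growth.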

Assays:
Assay in all cases: DTP human tumour cell line panel, 48 h
786-0 renal = tested on: 786-0 renal
CAKI-1 renal = tested on: CAKI-1 renal
DU-145 prostate = tested on: DU-145 prostate
HCC-2998 colon = tested on: HCC-2998 colon
HCT-15 colon = tested on: HCT-15 colon
HT29 colon = tested on: HT29 colon
K-562 leukemia = tested on: K-562 leukemia
KM12 colon = tested on: KM12 colon
NCI-H226 lung = tested on: NCI-H226 lung
SNB-19 CNS = tested on: SNB-19 CNS

SMILES	GI50 (786-0 renal)	TGI (786-0 renal)	GI50 (CAKI-1 renal)	TGI (CAKI-1 renal)	GI50 (DU-145 prostate)	TGI (DU-145 prostate)	GI50 (HCC-2998 colon)	TGI (HCC-2998 colon)	GI50 (HCT-15 colon)	TGI (HCT-15 colon)	GI50 (HT29 colon)	TGI (HT29 colon)	GI50 (K-562 leukemia)	TGI (K-562 leukemia)	GI50 (KM12 colon)	TGI (KM12 colon)	GI50 (NCI-H226 lung)	TGI (NCI-H226 lung)	GI50 (SNB-19 CNS)	TGI (SNB-19 CNS)
O=C1/C(=C/c2ccc(Cl)cc2)CCC/C1=C\c1ccc(Cl)cc1	5.55 µM	> 100 µM	> 100 µM	> 100 µM	4.09 µM	> 100 µM	1.75 µM	3.19 µM	3.39 µM	> 100 µM	2.7 µM	6.37 µM	3.61 µM	> 100 µM	1.9 µM	3.75 µM	5.18 µM	> 100 µM	6.69 µM	> 100 µM
COc1ccc2c(c1)C(=O)/C(=C/c1ccc([N+](=O)[O-])o1)O2	1.79 µM	3.43 µM	0.432 µM	1.49 µM	2.05 µM	3.97 µM	1.89 µM	3.74 µM	0.613 µM	2.14 µM	0.954 µM	2.74 µM			1.65 µM	3.11 µM	1.78 µM	5.83 µM	3.09 µM	
Oc1c(Cl)cc(Cl)cc1C(c1cc(Cl)cc(Cl)c1O)C(Cl)(Cl)Cl	2.4 µM	7.45 µM	0.472 µM	2.06 µM	4.12 µM	15.7 µM	1.91 µM	5.08 µM	0.825 µM	13.8 µM	3.03 µM	11.4 µM	1.1 µM	20.4 µM	2.83 µM	10.1 µM	2.18 µM	5.89 µM	3.23 µM	15.8 µM
[N-]=[N+]=NCCCn1c2c(c3ccc([N+](=O)[O-])cc3c1=O)C(=O)c1cc(F)ccc1-2	0.334 µM	2.01 µM	0.288 µM	4.68 µM	0.547 µM	> 63.5 µM	14.5 µM	> 100 µM	5.86 µM	> 100 µM	1.24 µM	> 35.2 µM	1.25 µM	> 100 µM	2.13 µM	> 26.2 µM	2.26 µM	> 46.8 µM	1.05 µM	> 100 µM
O=C(Nc1cccc(Cl)c1)c1cccc(NC2=C(Cl)C(=O)N(Cc3ccccc3)C2=O)c1	35.8 µM	> 100 µM	15 µM	49.1 µM	46 µM	> 100 µM	19.8 µM	62.4 µM	30 µM	> 100 µM	55.7 µM	> 100 µM	0.662 µM	35.5 µM	28.2 µM	80.4 µM	22.4 µM	> 100 µM	> 100 µM	> 100 µM
CSC(=S)OC1CC(n2cnc3c(NC(=O)c4ccccc4)ncnc32)OC1CO[Si](C)(C)C(C)(C)C (stereo unspecified)		> 56.2 µM		> 46.4 µM		42.6 µM		> 31.6 µM		> 56.2 µM		> 56.2 µM		> 49.5 µM		41.6 µM		> 56.2 µM		> 56.2 µM
CC1=C(C(=O)Nc2cc(Cl)c3[nH]ncc3c2)C(c2ccc(C(F)(F)F)cc2)CC(=O)N1 (stereo unspecified)	11.7 µM	> 25 µM	> 25 µM	> 25 µM	> 25 µM	> 25 µM	> 25 µM	> 25 µM	> 25 µM	> 25 µM	> 25 µM	> 25 µM	> 25 µM	> 25 µM	20 µM	> 25 µM	2.11 µM	> 25 µM	> 25 µM	> 25 µM
CC([C@H]1CCC2C3CCC4C[C@@H](N)CC[C@]4(C)C3CC[C@@]21C)N(C)C (stereo partly specified)	4.99 µM	11.6 µM	5.67 µM	18.1 µM	14.3 µM	> 48.4 µM	12.8 µM	26.3 µM	1.59 µM	4.72 µM	1.29 µM	5.59 µM	2.27 µM	7.34 µM	7.55 µM	21.4 µM	12.4 µM	> 45.9 µM	15.8 µM	32.7 µM
Fc1cccc(-n2ccc(-c3ccccc3)nc2=S)c1	21.2 µM	44.1 µM	4.11 µM	14.3 µM	20.3 µM	66.7 µM	18.1 µM	33.4 µM	17.3 µM	36.1 µM	57.3 µM	> 100 µM	43 µM	> 100 µM	18.6 µM	42.8 µM	18.1 µM	36.5 µM	12.9 µM	> 59.7 µM
CC1(N)CCN(c2cnc(-c3cccc(Cl)c3Cl)c(N)n2)CC1	8.36 µM	22 µM	14.8 µM	> 100 µM	56.5 µM	> 100 µM	22 µM	77.6 µM	28.3 µM	> 100 µM	26.7 µM	> 100 µM			7.13 µM	> 100 µM	3.2 µM	> 100 µM	7.63 µM	> 100 µM
CN(C)CCNc1c2ccccc2nc2oc3ccccc3c12	5.39 µM	29.2 µM	14.5 µM	> 100 µM	4.35 µM	17.9 µM	8.49 µM	22.3 µM	5.04 µM	25 µM	3.97 µM	19.6 µM	5.22 µM	> 100 µM	6.84 µM	33.9 µM	8.65 µM	47.1 µM	6.88 µM	34.8 µM
N#Cc1cc(S(=O)(=O)Nc2nnc(-c3ccccc3)c(-c3ccccc3)n2)c(SCc2ccccc2)cc1Cl	24.6 µM	64.1 µM	21.3 µM	42.1 µM	20.1 µM	41.6 µM	> 100 µM	> 100 µM	17.4 µM	33.3 µM			27.2 µM	> 100 µM	19.2 µM	42.5 µM	27.6 µM	70.7 µM	35.1 µM	> 100 µM
CO/N=C(\COc1ccc2oc(-c3ccccc3)cc(=O)c2c1)c1ccc(OC)cc1	21.9 µM	48.9 µM	22.7 µM	69.2 µM	31 µM	> 100 µM	21.4 µM	48.6 µM	30.2 µM	> 100 µM	19.7 µM	48.6 µM	27.3 µM	> 100 µM	27.1 µM	> 100 µM	50.1 µM	> 100 µM		
